Results as given in ChEMBL document CHEMBL4041467, “Synthesis of novel 15-membered 8a-azahomoerythromycin A acylides: Consequences of structural modification at the C-3 and C-6 position on antibacterial activity” (Eur J Med Chem, 2017).
≈ marks a conversion by molar mass, not a printed value.

Columns and labels:
Streptococcus pyogenes [1] = test: Antibacterial activity against constitutively macrolide/lincosamide/streptogramin B-resistant Streptococcus pyogenes by agar microdilution method; type: functional
Streptococcus pneumoniae [2] = test: Antibacterial activity against constitutively macrolide/lincosamide/streptogramin B-resistant Streptococcus pneumoniae by agar microdilution method; type: functional
Streptococcus pneumoniae [3] = test: Antibacterial activity against erythromycin susceptible Streptococcus pneumoniae by agar microdilution method; type: functional
Staphylococcus aureus [4] = test: Antibacterial activity against inducibly macrolide/lincosamide/streptogramin B-resistant Staphylococcus aureus by agar microdilution method; type: functional
Staphylococcus aureus [5] = test: Antibacterial activity against constitutively macrolide/lincosamide/streptogramin B-resistant Staphylococcus aureus by agar microdilution method; type: functional
Streptococcus pyogenes [6] = test: Antibacterial activity against erythromycin susceptible Streptococcus pyogenes by agar microdilution method; type: functional
Streptococcus pneumoniae [7] = test: Antibacterial activity against Mef-mediated macrolide efflux resistant Streptococcus pneumoniae by agar microdilution method; type: functional
Staphylococcus aureus [8] = test: Antibacterial activity against erythromycin susceptible Staphylococcus aureus by agar microdilution method; type: functional
Streptococcus pyogenes [9] = test: Antibacterial activity against Mef-mediated macrolide efflux resistant Streptococcus pyogenes by agar microdilution method; type: functional
Haemophilus influenzae = test: Antibacterial activity against Haemophilus influenzae by agar microdilution method; type: functional
Staphylococcus aureus [10] = test: Antibacterial activity against erythromycin susceptible Staphylococcus aureus infected in mouse assessed as increase in mouse survival administered orally 1 hr post infection; type: functional; conditions: po
Streptococcus pneumoniae [11] = test: Antibacterial activity against erythromycin susceptible Streptococcus pneumoniae infected in mouse assessed as increase in mouse survival administered orally 1 hr post infection; type: functional; conditions: po
Staphylococcus aureus [12] = test: Potency index, ratio of clarithromycin ED50 to compound ED50 for erythromycin susceptible Staphylococcus aureus infected in mouse; type: functional
Streptococcus pneumoniae [13] = test: Potency index, ratio of clarithromycin ED50 to compound ED50 for erythromycin susceptible Streptococcus pneumoniae infected in mouse; type: functional
[14] = Cmax in Han Wistar rat at 10 mg/kg, iv by LC-MS/MS analysis; type: ADME, organism-based; parameters: dose 10 mg/kg, route intravenous; conditions: in vivo
[15] = AUC(0 to infinity) in Han Wistar rat at 10 mg/kg, iv by LC-MS/MS analysis; type: ADME, organism-based; parameters: dose 10 mg/kg, route intravenous, time infinity; conditions: in vivo
[16] = Terminal half life in Han Wistar rat at 10 mg/kg, iv by LC-MS/MS analysis; type: ADME, organism-based; conditions: in vivo, read-out: beta t1/2 (converted)
[17] = Clearance in Han Wistar rat at 10 mg/kg, iv by LC-MS/MS analysis; type: ADME, organism-based; conditions: in vivo
Rattus norvegicus = test: Unbound clearance in Han Wistar rat at 10 mg/kg, iv by LC-MS/MS analysis; type: ADME, organism-based; conditions: in vivo
[18] = Volume of distribution at steady state in Han Wistar rat at 10 mg/kg, iv by LC-MS/MS analysis; type: ADME, organism-based; conditions: in vivo, read-out: Vdss
[19] = Fraction unbound in Han Wistar rat plasma at 10 mg/kg, iv by LC-MS/MS analysis; type: ADME, organism-based
[20] = Cmax in Han Wistar rat at 20 mg/kg, po by LC-MS/MS analysis; type: ADME, organism-based; parameters: dose 20 mg/kg, route oral; conditions: in vivo
[21] = Tmax in Han Wistar rat at 20 mg/kg, po by LC-MS/MS analysis; type: ADME, organism-based; conditions: in vivo
[22] = AUC(0 to infinity) in Han Wistar rat at 20 mg/kg, po by LC-MS/MS analysis; type: ADME, organism-based; parameters: dose 20 mg/kg, time infinity, route oral; conditions: in vivo
[23] = Oral bioavailability in Han Wistar rat at 20 mg/kg by LC-MS/MS analysis; type: ADME, organism-based; conditions: in vivo
[24] = AUC(0 to t) in Han Wistar rat at 10 mg/kg, iv by LC-MS/MS analysis; type: ADME, organism-based; conditions: in vivo
[25] = Protein binding in mouse plasma at 1 ug/ml by LC-MS/MS analysis; type: ADME, cell-free; conditions: read-out: PPB (converted)
[26] = Protein binding in rat plasma at 1 ug/ml by LC-MS/MS analysis; type: ADME, cell-free; conditions: read-out: PPB (converted)
[27] = (§1) Protein binding in human plasma at 1 ug/ml by LC-MS/MS analysis; type: ADME, cell-free; conditions: read-out: PPB (converted)
Plasma [28] = test: Stability in rat plasma at 1 uM up to 120 mins by LC-MS/MS analysis; type: ADME, cell-free; conditions: 2 h
[29] = AUC(0 to t) in Han Wistar rat at 20 mg/kg, po by LC-MS/MS analysis; type: ADME, organism-based; conditions: in vivo
Liver [30] = test: Intrinsic clearance in mouse liver microsomes at 1 uM after 60 mins in presence of NADP by LC-MS/MS analysis; type: ADME, microsome; conditions: 1 h
Liver [31] = test: Intrinsic clearance in rat liver microsomes at 1 uM after 60 mins in presence of NADP by LC-MS/MS analysis; type: ADME, microsome; conditions: 1 h
Liver [32] = test: Intrinsic clearance in human liver microsomes at 1 uM after 60 mins in presence of NADP by LC-MS/MS analysis; type: ADME, microsome; conditions: 1 h
[33] = Metabolic stability in mouse liver microsomes assessed as parent compound remaining at 1 uM after 60 mins in presence of NADP by LC-MS/MS analysis; type: ADME, microsome; conditions: read-out: Stability
[34] = Metabolic stability in rat liver microsomes assessed as parent compound remaining at 1 uM after 60 mins in presence of NADP by LC-MS/MS analysis; type: ADME, microsome; conditions: read-out: Stability
[35] = Metabolic stability in human liver microsomes assessed as parent compound remaining at 1 uM after 60 mins in presence of NADP by LC-MS/MS analysis; type: ADME, microsome; conditions: read-out: Stability
[36] = Cmax in Han Wistar rat at 30 mg/kg, po by LC-MS/MS analysis; type: ADME, organism-based; parameters: dose 30 mg/kg, route oral; conditions: in vivo
[37] = Tmax in Han Wistar rat at 30 mg/kg, po by LC-MS/MS analysis; type: ADME, organism-based; conditions: in vivo
[38] = AUC(0 to infinity) in Han Wistar rat at 30 mg/kg, po by LC-MS/MS analysis; type: ADME, organism-based; parameters: dose 30 mg/kg, time infinity, route oral; conditions: in vivo
[39] = Oral bioavailability in Han Wistar rat at 30 mg/kg by LC-MS/MS analysis; type: ADME, organism-based; conditions: in vivo
Plasma [40] = test: Drug uptake in Han Wistar rat plasma at 10 mg/kg, iv up to 8 hrs by LC-MS/MS analysis; type: ADME, organism-based; conditions: in vivo
Plasma [41] = test: Drug uptake in Han Wistar rat plasma at 30 mg/kg, po up to 4 hrs by LC-MS/MS analysis; type: ADME, organism-based; conditions: in vivo
[42] = AUC(0 to t) in Han Wistar rat at 30 mg/kg, po by LC-MS/MS analysis; type: ADME, organism-based; conditions: in vivo
Plasma [43] = test: as §1; type: ADME, cell-free

| Structure (SMILES) | MIC (Streptococcus pyogenes [1]) | MIC (Streptococcus pneumoniae [2]) | MIC (Streptococcus pneumoniae [3]) | MIC (Staphylococcus aureus [4]) | MIC (Staphylococcus aureus [5]) | MIC (Streptococcus pyogenes [6]) | MIC (Staphylococcus aureus [8]) | MIC (Streptococcus pyogenes [9]) | MIC (Haemophilus influenzae) | ED50 (Staphylococcus aureus [10]) | ED50 (Streptococcus pneumoniae [11]) | Cmax [14] | AUC(0-inf) [15] | half-life [16] | clearance [17] | fraction unbound at 1 ug/ml [25] | fraction unbound at 1 ug/ml [26] | remaining at 1 h, 1 µM [33] | remaining at 1 h, 1 µM [34] | remaining at 1 h, 1 µM [35] | further results |
| --- | --- | --- | --- | --- | --- | --- | --- | --- | --- | --- | --- | --- | --- | --- | --- | --- | --- | --- | --- | --- | --- |
| CC[C@H]1OC(=O)[C@H](C)[C@@H](OC(=O)CCNCCNc2cc3c(=O)c(C(=O)O)cn(C4CC4)c3cc2Cl)[C@H](C)[C@@H](O[C@@H]2O[C@H](C)C[C@H](N(C)C)[C@H]2O)[C@](C)(OC/C=C/c2cnc3ccccc3c2)C[C@@H](C)NC(=O)[C@H](C)[C@@H](O)[C@]1(C)O | 4 µg/mL (≈ 3.53 µM) | ≤ 0.125 µg/mL | ≤ 0.06 µg/mL | 0.25 µg/mL (≈ 0.221 µM) | > 64 µg/mL | ≤ 0.06 µg/mL | ≤ 0.125 µg/mL | 0.25 µg/mL (≈ 0.221 µM) | 1 µg/mL (≈ 0.882 µM) | 6 mg/kg | 4.5 mg/kg | 2480 ng/mL | 8510 ng·h/mL | 4.3 h | 20.3 mL/min/kg | 0.3 | 0.42 | 100% | 100% | 100% | MIC (Streptococcus pneumoniae [7]): ≤ 0.125 µg/mL; Ratio ED50 (Staphylococcus aureus [12]): 4; Ratio ED50 (Streptococcus pneumoniae [13]): 6; CL free (Rattus norvegicus): 48.3 mL/min/kg; Vd [18]: 6.7 L/kg; fraction unbound [19]: 0.42; Cmax [20]: 630 ng/mL; Tmax [21]: 3.3 h; AUC(0-inf) [22]: 7500 ng·h/mL; bioavailability [23]: 41.8%; AUC(0-t) [24]: 4800 to 10000 ng·h/mL; fraction unbound at 1 ug/ml [27]: 0.4; Stability (Plasma [28]): Stable; AUC(0-t) [29]: 2040 to 9730 ng·h/mL; CLH (Liver [30]): < 0.6 mL/min/g; CLH (Liver [31]): < 0.6 mL/min/g; CLH (Liver [32]): < 0.6 mL/min/g |
| C=CCO[C@]1(C)C[C@@H](C)NC(=O)[C@H](C)[C@@H](O)[C@](C)(O)[C@@H](CC)OC(=O)[C@H](C)[C@@H](OC(=O)CCNCCNc2cc3c(=O)c(C(=O)O)cn(C4CC4)c3cc2Cl)[C@H](C)[C@H]1O[C@@H]1O[C@H](C)C[C@H](N(C)C)[C@H]1O | 4 µg/mL (≈ 3.97 µM) | 1 µg/mL (≈ 0.993 µM) | ≤ 0.125 µg/mL | 0.25 µg/mL (≈ 0.248 µM) | > 64 µg/mL | ≤ 0.125 µg/mL | ≤ 0.125 µg/mL | 0.25 µg/mL (≈ 0.248 µM) | 2 µg/mL (≈ 1.99 µM) | 26.5 mg/kg | 46.5 mg/kg | 3870 ng/mL | 4080 ng·h/mL | 1.6 h | 44.7 mL/min/kg | 0.45 | 0.63 | 100% | 100% | 99% | CL free (Rattus norvegicus): 71 mL/min/kg; Vd [18]: 3.2 L/kg; Cmax [36]: 440 ng/mL; fraction unbound [19]: 0.63; Tmax [37]: 0.31 h; AUC(0-inf) [38]: 510 ng·h/mL; bioavailability [39]: 4.9%; Drug uptake (Plasma [40]): Active; Drug uptake (Plasma [41]): Active; AUC(0-t) [24]: 2450 to 5340 ng·h/mL; AUC(0-t) [42]: 50 to 520 ng·h/mL; fraction unbound at 1 ug/ml [27]: 0.51; Stability (Plasma [28]): Stable; CLH (Liver [30]): < 0.6 mL/min/g; CLH (Liver [31]): < 0.6 mL/min/g; CLH (Liver [32]): < 0.6 mL/min/g |
| CC[C@H]1OC(=O)[C@H](C)[C@@H](O[C@H]2C[C@@](C)(OC)[C@@H](O)[C@H](C)O2)[C@H](C)[C@@H](O[C@@H]2O[C@H](C)C[C@H](N(C)C)[C@H]2O)[C@](C)(OC)C[C@@H](C)C(=O)[C@H](C)[C@@H](O)[C@]1(C)O [CLARITHROMYCIN] | – | – | – | – | – | – | – | – | – | 22.4 to 24.8 mg/kg | 27.2 to 34.6 mg/kg | – | – | – | – | 0.88 | 1 | 100% | 92.5% | 91% | PPB (Plasma [43]): 11% |
